According to PMC11558998, “Lipophilic bisphosphonates reduced cyst burden and ameliorated hyperactivity of mice chronically infected with Toxoplasma gondii” (mBio, 2024):

Assays:
[1] = system: in vitro differentiated Me49 bradyzoites (cysts); experiment: Vacuole size of in vitro differentiated Me49 cysts (DBA/SAG1 IFA); assay type: cell-based, Toxoplasma gondii; settings: 4 days, ambient CO2
Method: (§1) Type II Me49 or Pru was differentiated using compound 1 as previously described ([50]). Confluent HFF monolayers on glass coverslips (preincubated for 2 hours with 3 µM compound 1, as described previously) were infected with 5 × 10^3 tachyzoites of the ME49 or Pru (type 2) or EGS (type I/III) strain (no compound 1 for EGS). The cells were allowed to grow and differentiate in a 37°C incubator with ambient CO2 for 3 days (EGS was allowed to spontaneously differentiate for 4 days). […] After 7 days (Me49) or 8 days (EGS) of incubation, the cells were fixed with 3% paraformaldehyde for 10 minutes, permeabilized with 0.25% Triton X-100 for 10 minutes, and then blocked in 3% bovine serum albumin for 1 hour. The coverslips were then incubated in DBA rhodamine (for Me49)([51]) or DBA lectin (a kind gift from Diego Huet for EGS) and anti-SAG1 rat antibody (a kind gift from Vern Carruthers) for 2 hours. Then, the secondary anti-rat 488 was used to visualize the SAG1 antibody. The cells were then mounted onto microscope slides with fluoromount and DAPI (4′,6-diamidino-2-phenylindole). The slides were placed in the fridge for a minimum of 24 hours before imaging on a Delta Vision microscope. The vacuole sizes were calculated using ImageJ software.

[2] = system: hyperactivity of Balb/c mice chronically infected with Pru-GFP; experiment: CageDot continuous monitoring of mouse activity during chronic infection; settings: 1 mg/kg/day i.p. 16 days, 15 dpt and 2 wpt
Method: At this time, the remaining mice were injected i.p. daily for 16 consecutive days with 200 µL solvent (10% Kolliphor HS-15) or compounds dissolved in 10% HS-15. […] Mice were euthanized humanely 2 weeks after the final injection.
Mice were monitored during the infection using the CageDot ([30], [31]), which detects vibrations. […] Data are collected at a 100 Hz sampling rate (each second, 100 data points were collected).

[3] = system: ex vivo bradyzoites of the Pru strain from chronically infected mice; experiment: Ex vivo bradyzoite growth assay, Pru; assay type: cell-based, Toxoplasma gondii; settings: 3x EC50
Method: (§2) Brains of chronically infected mice were collected, homogenized with seven strokes in a glass homogenizer, and then enumerated on a Delta Vision microscope [protocol adapted from reference ([45])]. Twenty-five cysts per plate were then placed in a tube for acid/pepsin (170 mM sodium chloride, 60 mM hydrochloric acid, and 0.1 mg/mL pepsin) treatment for 10 minutes in a 37°C water bath. The cysts were then neutralized with 94 mM Na2CO3. The liberated bradyzoites were then equally distributed into a 12-well plate. For the growth assay, the cells were grown in the presence of compounds or DMSO for 12 and 14 days undisturbed. For the viability assays, the cells were treated with compounds or DMSO for 4 hours before being washed with 1× PBS and then grown for 12 and 14 days in media without compounds. After 12 and 14 days, the cells were fixed with 100% ethanol and stained with 2.5× crystal violet. The control DMSO plaque image is duplicated from Fig. 2B to be used as the representative image of plaques in Fig. 2A. Plaques were quantified on a light microscope using the 4× objective and the size of the plaques was measured using Fiji (ImageJ) software.

[4] = system: ex vivo bradyzoites of the Pru strain from chronically infected mice; experiment: Ex vivo bradyzoite viability assay, Pru; assay type: cell-based, Toxoplasma gondii; settings: 3x EC50
Method: as §2

[5] = system: type I/III EGS strain cysts; experiment: Vacuole size of spontaneously formed EGS cysts; assay type: cell-based, Toxoplasma gondii; settings: EGS spontaneous cysts, 3x EC50, 4 days
Method: as §1

[6] = system: ex vivo bradyzoites of Me49-RFP from brains of chronically infected mice; experiment: Ex vivo bradyzoite viability assay, Me49-RFP; assay type: cell-based, Toxoplasma gondii; settings: inhibitors 4 hours then drug-free 14 days, 3x EC50
Method: as §2

[7] = system: RH-RFP tachyzoites in Swiss Webster mice; settings: RH parasites; cited from earlier work
[8] = system: in vitro differentiated Me49 bradyzoites; experiment: In vitro bradyzoite viability assay (plaques); assay type: cell-based, Toxoplasma gondii; settings: Me49 bradyzoites treated 4 days at 3x and 5x EC50, then plaques 14 or 16 days, vs DMSO
Method: The protocol for in vitro viability assay was adapted from Zwicker et al. ([52]). Confluent HFF monolayers (preincubated for 2 hours with 3 µM compound 1) were infected with 5 × 10^3 tachyzoites of the ME49 (type 2) strain. After 24 hours, the compound 1 was removed to avoid toxicity to the host cells. The cells were allowed to grow and differentiate in a 37°C incubator with ambient CO2 for 3 days. […] After 7 days of differentiation, the cysts were collected by scraping the monolayers, syringe lysing the parasites, and treatment with acid/pepsin (170 mM sodium chloride, 60 mM hydrochloric acid, and 0.1 mg/mL pepsin) for 30 minutes in a 37°C water bath. The cysts were then neutralized with 94 mM sodium carbonate (Na2CO3) and enumerated. Ten thousand bradyzoites were plated per well in a six-well plate and allowed to grow undisturbed in a 37°C incubator with 5% CO2 for 14 or 16 days. At this time, cultures were fixed with 100% ethanol and stained with 2.5× crystal violet. The control DMSO plaque image is duplicated from Fig. 1E to be used as the representative image of plaques in Fig. 1D. Plaques were quantified using a light microscope using the 4× objective.

[9] = system: Pru-GFP brain tissue cysts in Balb/c mice; experiment: Treatment of Balb/c mice chronically infected with Pru-GFP; settings: Balb/c mice, 1,500 Pru-GFP i.p., 1 mg/kg/day i.p. for 16 days from 28 dpi
Method: BALB/c male mice (Jackson Laboratory) were injected i.p. with a 200 µL suspension of 1,500 tachyzoites of the Pru-GFP strain T. gondii (type II genotype) (a gift from Laura Knoll). […] At 4 weeks post-infection, the brains of two mice were collected to check for the presence of cysts and to confirm that the mice were in the chronic stage. At this time, the remaining mice were injected i.p. daily for 16 consecutive days with 200 µL solvent (10% Kolliphor HS-15) or compounds dissolved in 10% HS-15. […] Mice were euthanized humanely 2 weeks after the final injection. The mouse brains were collected in 1 mL sterile PBS, minced with scissors, and homogenized using a glass homogenizer. Four 20 µL samples (80 µL total or 8% of sample) of each brain homogenate were placed on a glass microscope slide. Cysts were enumerated using a Delta Vision fluorescence microscope.

[10] = system: Me49-RFP brain tissue cysts in Swiss Webster mice; experiment: Treatment of Swiss Webster mice chronically infected with Me49-RFP; assay type: in vivo, Toxoplasma gondii; settings: Swiss Webster mice, 5,000 Me49-RFP i.p., BPH-1218 at 1 mg/kg daily for 16 days
[11] = system: in vitro derived Pru cysts; experiment: Vacuole size of in vitro derived Pru cysts; assay type: cell-based, Toxoplasma gondii
Method: as §1

[12] = system: RH-RFP tachyzoites in Swiss Webster mice; experiment: Mice infected with a lethal dose of T. gondii (acute infection); assay type: in vivo, Toxoplasma gondii; settings: 100 RH-RFP tachyzoites i.p., daily i.p. treatment for 10 days starting 6 hours after infection
Method: Experiments were carried out as described previously ([16]) using 100 T. gondii tachyzoites of the RH td-Tomato strain (RH-RFP) to infect female Swiss Webster mice. Drugs were dissolved in 10% Kolliphor HS-15 and were inoculated i.p. starting 6 hours after infection and administered for 10 days. The survival of mice was monitored along with their weight. Mice were sacrificed if they lost over 20% of their body weight. Surviving mice were challenged on day 30 post-infection with 10,000 RH-RFP tachyzoites. Blood was collected at 30 dpi (before challenge) and at the time of euthanasia (3 weeks post challenge) to analyze the presence of T. gondii antibodies. To test for antibodies, we ran a western blot with RH-RFP lysate protein and probed the membrane with the serum collected from the mice. Protein extraction and western blot conditions were as done previously ([20]). After blocking with 5% milk in PBS-T (0.1% Tween 20 in phosphate buffered saline [PBS]), we washed the membrane three times for 5 minutes with PBS-T and attached it to the BioRad multiscreen tool. The RH-RFP lysate was ran throughout the whole gel to allow for testing of different serum (antibodies) on the same membrane. […]

T. gondii = system: T. gondii; parameters: method as in PMID 17069459; settings: cited from earlier work

CCCCCCCCCCn1cc[n+](CC(P(=O)([O-])O)P(=O)(O)O)c1 (stereo not drawn) [BPH-1218]
vacuole size ([1]; 3x EC50 against tachyzoites): showed the same effect on vacuole size
vacuole size ([1]; 5x EC50 against tachyzoites): diminished vacuole size
activity of infected mice (nightly average energy, CageDot) [2]: decreased the activity of the infected mice to similar levels of the control uninfected mice
number of plaques, ex vivo growth [3]: significant reduction in the number of plaques
number of plaques, ex vivo viability [4]: significant reduction in the number of plaques
size of the vacuoles (cysts) [5]: reduced the size of the vacuoles
number of plaques, ex vivo viability [6]: reduced the viability of ex vivo bradyzoites
protection against lethal acute infection [7]: protected mice against a lethal acute infection
number of plaques (bradyzoite viability) [8]: plaque number was significantly reduced
reduction of cyst burden [9]: 74.0%
reduction of cyst burden [10]: 73.6%
vacuole size [11]: decreased the vacuole size

CCCCCCCCCCCn1cc[n+](CC(O)(P(=O)([O-])O)P(=O)(O)O)c1 (stereo not drawn) [BPH-1236]
vacuole size ([1]; 5x EC50 against tachyzoites): diminished vacuole size
number of plaques, ex vivo growth [3]: significant reduction in the number of plaques
number of plaques, ex vivo viability [4]: significant reduction in the number of plaques
size of the vacuoles (cysts) [5]: reduced the size of the vacuoles
protection against lethal acute infection (survival) [12]: protected mice against the acute infection
number of plaques, ex vivo viability [6]: reduced the viability of ex vivo bradyzoites
number of plaques (bradyzoite viability) [8]: plaque number was significantly reduced

CCCCCCCCCn1cc[n+](CC(O)(P(=O)([O-])O)P(=O)(O)O)c1 (stereo not drawn) [BPH-1238]
vacuole size ([1]; 5x EC50 against tachyzoites): diminished vacuole size
number of plaques, ex vivo growth [3]: significant reduction in the number of plaques
number of plaques, ex vivo viability [4]: significant reduction in the number of plaques
size of the vacuoles (cysts) [5]: reduced the size of the vacuoles
number of plaques, ex vivo viability [6]: reduced the viability of ex vivo bradyzoites
number of plaques (bradyzoite viability) [8]: plaque number was significantly reduced

CN1CCC(c2cc(-c3ccncc3)c(-c3ccc(F)cc3)[nH]2)CC1 [Compound 1, 4-[2-(4-fluorophenyl)-5-(1-methylpiperidine-4-yl)-1H-pyrrol-3-yl]pyridine]
induction of bradyzoite-specific antigen 1 (T. gondii): potent inducer of bradyzoite-specific antigen 1
replication of T. gondii (T. gondii): dramatically slow the replication
